Test results: patent US20100120700A1, “METHODS AND COMPOSITIONS FOR TREATING CERVICAL CANCER” (priority 2000, published 2010)
“And” between values parts separate entries of the source, which are not always exact repeats. Equal entries are not always repeated.

Tests used:
Assay in all cases: G assay PDZ-PL binding
Details in all cases: peptide 10 uM, protein 5
EBP50 #311.1 domain 1 = target: T1, EBP50 #311.1 domain 1 (Homo sapiens, UniProt O14745)
T1 construct: made in house; host or cells: E. coli (DH5alpha or BL-21)
T1 sequence (O14745 with tags, fused parts or gaps): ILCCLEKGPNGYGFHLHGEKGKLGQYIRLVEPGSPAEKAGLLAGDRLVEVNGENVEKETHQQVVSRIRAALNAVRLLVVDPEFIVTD
Description: (§1) (1) A PDZ-domain polypeptide is bound to a surface, e.g. a protein binding surface. In a preferred embodiment, a GST/PDZ fusion protein containing one or more PDZ domains is bound to a polystyrene 96-well plate. […] In one embodiment, the GST/PDZ fusion protein is bound via an anti-GST antibody that is coated onto the 96-well plate. Adequate binding to the plate can be achieved when: • a. 100 uL per well of 5 ug/mL goat anti-GST polyclonal antibody (Pierce) in PBS is added to a polystyrene 96-well plate (e.g., Num Polysorb) at 4° C. for 12 hours. • b. The plate is blocked by addition of 200 uL per well of PBS/BSA for 2 hours at 4° C. • c. The plate is washed 3 times with PBS. • d. 50 uL per well of 5 ug/mL GST/PDZ fusion protein) or, as a negative control, GST polypeptide alone (i.e. not a fusion protein) in PBS/BSA is added to the plate for 2 hours at 4° C. • e. The plate is again washed 3 times with PBS.
(§2) (2) Biotinylated PL peptides are allowed to react with the surface by addition of 50 uL per well of 20 uM solution of the biotinylated peptide in PBS/BSA for 10 minutes at 4° C., followed by an additional 20 minute incubation at 25° C.
(§3) (3) The binding of the biotinylated peptide to the GST/PDZ fusion protein surface can be detected using a variety of methods and detectors known to one of skill in the art. In one embodiment, 100 uL per well of 0.5 ug/mL streptavidin-horse radish peroxidase (HRP) conjugate dissolved in BSA/PBS is added and allowed to react for 20 minutes at 4° C. The plate is then washed 5 times with 50 mM Tris pH 8.0 containing 0.2% Tween 20, and developed by addition of 100 uL per well of HRP-substrate solution (TMB, Dako) for 20 minutes at room temperature (RT). The reaction of the HRP and its substrate is terminated by addition of 100 uL per well of 1M sulfuric acid, and the absorbance of each well of the plate is read at 450 nm.
(§4) (4) Specific binding of a PL peptide and a PDZ domain polypeptide is determined by comparing the signal from the well(s) in which the PL peptide and PDZ domain polypeptide are combined, with the background signal(s). The background signal is the signal found in the negative control(s). Typically a specific or selective reaction will be at least twice background signal, more typically more than 5 times background, and most typically 10 or more times the background signal. In addition, a statistically significant reaction will involve multiple measurements of the reaction with the signal and the background differing by at least two standard errors, more typically four standard errors, and most typically six or more standard errors. Correspondingly, a statistical test (e.g. a T-test) comparing repeated measurements of the signal with-repeated measurements of the background will result in a p-value<0.05, more typically a p-value<0.01, and most typically a p-value<0.001 or less. As noted, in an embodiment of the “G” assay, the signal from binding of a given PL peptide to immobilized (surface bound) GST polypeptide alone is one suitable negative control (sometimes referred to as “B 1”). Because all measurement are done in multiples (i.e. at least duplicate) the arithmetic mean (or, equivalently, average.) of several measurements is used in determining the binding, and the standard error of the mean is used in determining the probable error in the measurement of the binding. The standard error of the mean of N measurements equals the square root of the following: the sum of the squares of the difference between each measurement and the mean, divided by the product of (N) and (N−1). Thus, in one embodiment, specific binding of the PDZ protein to the platebound peptide is determined by comparing the mean signal (“mean S”) and standard error of the signal (“SE”) for a particular PL-PDZ combination with the mean B1. […]

INADL domain 4 = target: T2, INADL domain 4 (Homo sapiens, UniProt Q8NI35)
T2 construct: made in house; host or cells: E. coli (DH5alpha, BL21 or JM109)
T2 sequence (Q8NI35 with tags, fused parts or gaps): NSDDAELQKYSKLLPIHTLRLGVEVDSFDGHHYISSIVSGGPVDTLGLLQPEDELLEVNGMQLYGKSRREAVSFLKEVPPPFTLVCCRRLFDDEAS
Description: as §1, §2, §3, §4

INADL domain 8 = target: T3, INADL domain 8 (Homo sapiens, UniProt Q8NI35)
T3 construct: made in house; host or cells: E. coli (DH5alpha or BL-21)
T3 sequence (Q8NI35 1425-1517): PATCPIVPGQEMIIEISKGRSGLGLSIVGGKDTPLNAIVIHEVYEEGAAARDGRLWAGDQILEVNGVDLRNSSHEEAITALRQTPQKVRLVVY
Description: as §1, §2, §3, §4

KIAA0382 domain 1 = target: T4, KIAA0382 domain 1 (Homo sapiens, UniProt Q9NZN5)
T4 construct: made in house; host or cells: E. coli (DH5alpha, BL21 or JM109), vector pGEX-3X
T4 sequence (Q9NZN5 with tags, fused parts or gaps): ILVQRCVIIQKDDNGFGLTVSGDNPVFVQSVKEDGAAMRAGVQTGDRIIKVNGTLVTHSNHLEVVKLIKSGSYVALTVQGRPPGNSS
Description: as §1, §2, §3, §4

KIAA1526 #125.1 domain 1 = target: T5, KIAA1526 #125.1 domain 1 (Homo sapiens, UniProt Q9P202)
T5 construct: made in house; host or cells: E. coli (DH5alpha, BL21 or JM109)
T5 sequence (Q9P202 130-232): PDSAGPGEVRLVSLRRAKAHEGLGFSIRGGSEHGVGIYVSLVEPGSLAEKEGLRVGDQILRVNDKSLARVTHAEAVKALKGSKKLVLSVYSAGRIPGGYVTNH
Description: as §1, §2, §3, §4

KIAA1719 domain 3 = target: T6, KIAA1719 domain 3 (Homo sapiens, UniProt Q9C0E4)
T6 construct: made in house; host or cells: E. coli (DH5alpha, BL21 or JM109)
T6 sequence (Q9C0E4 with tags, fused parts or gaps): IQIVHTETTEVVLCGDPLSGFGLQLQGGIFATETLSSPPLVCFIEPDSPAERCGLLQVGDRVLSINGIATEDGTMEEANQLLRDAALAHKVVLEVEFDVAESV
Description: as §1, §2, §3, §4

Magi2 domain 5 = target: T7, Magi2 domain 5 (Homo sapiens, UniProt Q86UL8)
T7 construct: made in house; host or cells: E. coli (DH5alpha, BL21 or JM109), vector pGEX-3X
T7 sequence (Q86UL8 1134-1231): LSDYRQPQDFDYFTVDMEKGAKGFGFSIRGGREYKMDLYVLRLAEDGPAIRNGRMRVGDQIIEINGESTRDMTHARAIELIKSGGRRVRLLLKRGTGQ
Description: as §1, §2, §3, §4

NeDLG domain 1, 2 = target: T8, NeDLG domain 1, 2 (Homo sapiens, UniProt Q92796)
T8 construct: the DNA portion cloned represents the PDZ domains and the cDNA portion located between individual domains; made in house; host or cells: E. coli (DH5alpha, BL21 or JM109)
T8 sequence (Q92796 129-315 limits assumed): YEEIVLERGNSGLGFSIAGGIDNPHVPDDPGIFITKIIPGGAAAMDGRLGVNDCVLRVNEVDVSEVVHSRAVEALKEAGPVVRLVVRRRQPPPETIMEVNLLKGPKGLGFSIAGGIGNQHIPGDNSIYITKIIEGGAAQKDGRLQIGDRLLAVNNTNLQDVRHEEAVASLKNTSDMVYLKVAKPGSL
Description: as §1, §2, §3, §4

NeDLG domain 3 = target: T9, NeDLG domain 3 (Homo sapiens, UniProt Q92796)
T9 construct: made in house; host or cells: E. coli (DH5alpha, BL21 or JM109), vector pGEX-3X
T9 sequence (Q92796 with tags, fused parts or gaps): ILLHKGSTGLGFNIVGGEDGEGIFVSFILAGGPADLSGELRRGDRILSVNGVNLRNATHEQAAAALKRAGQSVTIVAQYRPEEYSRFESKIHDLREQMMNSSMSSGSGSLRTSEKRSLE
Description: as §1, §2, §3, §4

PAR3 #278.1 domain 3 = target: T10, PAR3 #278.1 domain 3 (Homo sapiens, UniProt Q8TEW0)
T10 construct: made in house; host or cells: E. coli (DH5alpha, BL21 or JM109)
T10 sequence (Q8TEW0 579-681): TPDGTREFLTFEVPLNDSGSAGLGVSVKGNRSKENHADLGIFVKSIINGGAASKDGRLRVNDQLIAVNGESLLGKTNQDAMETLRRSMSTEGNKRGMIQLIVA
Description: as §1, §2, §3, §4

PDZK1 domain 3 = target: T11, PDZK1 domain 3 (Homo sapiens, UniProt Q5T2W1)
T11 construct: made in house; host or cells: E. coli (DH5alpha, BL21 or JM109)
Description: as §1, §2, §3, §4

PSD95 domain 1, 2, 3 = target: T12, PSD95 domain 1, 2, 3 (Homo sapiens, UniProt P78352)
T12 construct: the DNA portion cloned represents the PDZ domains and the cDNA portion located between individual domains; made in house; host or cells: E. coli (DH5alpha, BL21 or JM109)
T12 sequence (P78352 62-395): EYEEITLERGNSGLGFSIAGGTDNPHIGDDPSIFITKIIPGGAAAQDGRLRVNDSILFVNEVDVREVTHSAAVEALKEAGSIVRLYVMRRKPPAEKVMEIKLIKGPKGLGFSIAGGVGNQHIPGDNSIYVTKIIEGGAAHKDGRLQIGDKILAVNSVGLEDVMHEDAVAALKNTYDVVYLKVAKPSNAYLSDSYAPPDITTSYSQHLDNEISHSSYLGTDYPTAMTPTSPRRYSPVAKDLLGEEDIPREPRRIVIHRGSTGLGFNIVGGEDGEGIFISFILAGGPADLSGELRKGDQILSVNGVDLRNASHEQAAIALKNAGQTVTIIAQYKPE
Description: as §1, §2, §3, §4

Serine Protease domain 1 = target: T13, Serine Protease domain 1 (Homo sapiens, UniProt O43464)
T13 construct: made in house; host or cells: E. coli (DH5alpha, BL21 or JM109)
T13 sequence (O43464 344-452): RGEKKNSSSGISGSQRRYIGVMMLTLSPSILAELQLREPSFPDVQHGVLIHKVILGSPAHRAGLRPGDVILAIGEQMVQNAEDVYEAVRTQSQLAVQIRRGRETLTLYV
Description: as §1, §2, §3, §4

ZO-2 domain 2 = target: T14, ZO-2 domain 2 (Homo sapiens, UniProt Q9UDY2)
T14 construct: made in house; host or cells: E. coli (DH5alpha, BL21 or JM109)
T14 sequence (Q9UDY2 with tags, fused parts or gaps): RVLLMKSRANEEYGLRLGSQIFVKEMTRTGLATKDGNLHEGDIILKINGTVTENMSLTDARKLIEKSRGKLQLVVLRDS
Description: as §1, §2, §3, §4

## 20 mer peptide corresponding to the C-terminus of HPV16 E6 (PDZ ligand), biotinylated in binding assays; ends SSRTRRETQL (SEQ ID NO: 13) [HPV E6 #16]
EBP50 #311.1 domain 1; A450 nm
  Ave OD: 0.4325
EBP50 #311.1 domain 1; vs GST only well
  OD S/N: 2.05
INADL domain 4; A450 nm
  Ave OD: 0.357
INADL domain 4; vs GST only well
  OD S/N: 2.15
INADL domain 8; A450 nm
  Ave OD: 0.3875
INADL domain 8; vs GST only well
  OD S/N: 1.58
KIAA0382 domain 1; A450 nm
  Ave OD: 0.712 and 0.6995
KIAA0382 domain 1; vs GST only well
  OD S/N: 3.61 and 2.66
KIAA1526 #125.1 domain 1; A450 nm
  Ave OD: 1.379 and 0.7665
KIAA1526 #125.1 domain 1; vs GST only well
  OD S/N: 6.69 and 3.57
KIAA1719 domain 3; A450 nm
  Ave OD: 0.346
KIAA1719 domain 3; vs GST only well
  OD S/N: 1.65
Magi2 domain 5; A450 nm
  Ave OD: 0.651
Magi2 domain 5; vs GST only well
  OD S/N: 3.93
NeDLG domain 1, 2; A450 nm
  Ave OD: 3.401 and 3.118
NeDLG domain 1, 2; vs GST only well
  OD S/N: 19.83 and 17.13
NeDLG domain 3; A450 nm
  Ave OD: 0.632 and 0.5225
NeDLG domain 3; vs GST only well
  OD S/N: 3.69 and 2.49
PAR3 #278.1 domain 3; A450 nm
  Ave OD: 0.352
PAR3 #278.1 domain 3; vs GST only well
  OD S/N: 1.80
PDZK1 domain 3; A450 nm
  Ave OD: 0.5
PDZK1 domain 3; vs GST only well
  OD S/N: 1.92
PSD95 domain 1, 2, 3; A450 nm
  Ave OD: 3.523 and 3.866
PSD95 domain 1, 2, 3; vs GST only well
  OD S/N: 22.58 and 19.67
Serine Protease domain 1; A450 nm
  Ave OD: 0.3425
Serine Protease domain 1; vs GST only well
  OD S/N: 1.55
ZO-2 domain 2; A450 nm
  Ave OD: 0.3565
ZO-2 domain 2; vs GST only well
  OD S/N: 2.15
